Laboratory results published in ChEMBL document CHEMBL1157887, “4-Substituted 4-(1H-1,2,3-triazol-1-yl)piperidine: novel C7 moieties of fluoroquinolones as antibacterial agents” (2010).
Values after ≈ are worked out from the molar mass of the structure shown.

What was measured:
Assay type in all cases: functional
[1] = tested on: Staphylococcus aureus; assay: Antibacterial activity against Staphylococcus aureus ATCC 25923 by broth microdilution technique
[2] = tested on: Staphylococcus aureus; assay: Antibacterial activity against multidrug resistant Staphylococcus aureus clinical isolate by broth microdilution technique
[3] = tested on: Staphylococcus epidermidis; assay: Antibacterial activity against Staphylococcus epidermidis ATCC 12228 by broth microdilution technique
[4] = tested on: Enterococcus faecalis; assay: Antibacterial activity against Enterococcus faecalis ATCC 29212 by broth microdilution technique
[5] = tested on: Escherichia coli; assay: Antibacterial activity against Escherichia coli by broth microdilution technique
[6] = tested on: Pseudomonas aeruginosa; assay: Antibacterial activity against Pseudomonas aeruginosa by broth microdilution technique
[7] = tested on: Pseudomonas aeruginosa; assay: Antibacterial activity against multidrug resistant Pseudomonas aeruginosa clinical isolate by broth microdilution technique
[8] = tested on: Staphylococcus epidermidis; assay: Selectivity ratio of MIC of ciprofloxacin to MIC of compound for Staphylococcus epidermidis ATCC 12228

## COC(=O)c1cn(C2CCN(c3nc4c(cc3F)c(=O)c(C(=O)O)cn4C3CC3)CC2)nn1
[1]
  MIC: 1 µg/mL (≈ 2.19 µM)
[2]
  MIC: > 32 µg/mL
[3]
  MIC: 1 µg/mL (≈ 2.19 µM)
[4]
  MIC: 16 µg/mL (≈ 35.1 µM)
[5]
  MIC: 1 µg/mL (≈ 2.19 µM)
[6]
  MIC: 32 µg/mL (≈ 70.1 µM)
[7]
  MIC: 32 µg/mL (≈ 70.1 µM)

## CO/N=C/c1cn(C2CCN(c3nc4c(cc3F)c(=O)c(C(=O)O)cn4C3CC3)CC2)nn1
[1]
  MIC: 0.25 µg/mL (≈ 0.549 µM)
[2]
  MIC: > 32 µg/mL
[3]
  MIC: 0.5 µg/mL (≈ 1.1 µM)
[4]
  MIC: 4 µg/mL (≈ 8.78 µM)
[5]
  MIC: 2 µg/mL (≈ 4.39 µM)
[6]
  MIC: 32 µg/mL (≈ 70.3 µM)
[7]
  MIC: 32 µg/mL (≈ 70.3 µM)

## NCc1cn(C2CCN(c3nc4c(cc3F)c(=O)c(C(=O)O)cn4C3CC3)CC2)nn1
[1]
  MIC: 16 µg/mL (≈ 37.4 µM)
[2]
  MIC: > 32 µg/mL
[3]
  MIC: 32 µg/mL (≈ 74.9 µM)
[4]
  MIC: > 32 µg/mL
[5]
  MIC: 16 µg/mL (≈ 37.4 µM)
[6]
  MIC: 32 µg/mL (≈ 74.9 µM)
[7]
  MIC: 32 µg/mL (≈ 74.9 µM)

## CCO/N=C/c1cn(C2CCN(c3nc4c(cc3F)c(=O)c(C(=O)O)cn4C3CC3)CC2)nn1
[1]
  MIC: 0.5 µg/mL (≈ 1.07 µM)
[2]
  MIC: 32 µg/mL (≈ 68.2 µM)
[3]
  MIC: 1 µg/mL (≈ 2.13 µM)
[4]
  MIC: 4 µg/mL (≈ 8.52 µM)
[5]
  MIC: 4 µg/mL (≈ 8.52 µM)
[6]
  MIC: 32 µg/mL (≈ 68.2 µM)
[7]
  MIC: 32 µg/mL (≈ 68.2 µM)

## O=C(O)c1cn(C2CC2)c2nc(N3CCC(n4cc(-c5ccccc5)nn4)CC3)c(F)cc2c1=O
[1]
  MIC: 0.5 µg/mL (≈ 1.05 µM)
[2]
  MIC: 0.5 µg/mL (≈ 1.05 µM)
[3]
  MIC: 0.5 µg/mL (≈ 1.05 µM)
[4]
  MIC: 1 µg/mL (≈ 2.11 µM)
[5]
  MIC: 32 µg/mL (≈ 67.4 µM)
[6]
  MIC: > 32 µg/mL

## CCC(O)c1cn(C2CCN(c3nc4c(cc3F)c(=O)c(C(=O)O)cn4C3CC3)CC2)nn1 (stereo unspecified)
[1]
  MIC: 2 µg/mL (≈ 4.38 µM)
[2]
  MIC: > 32 µg/mL
[3]
  MIC: 2 µg/mL (≈ 4.38 µM)
[4]
  MIC: 8 µg/mL (≈ 17.5 µM)
[5]
  MIC: 1 µg/mL (≈ 2.19 µM)
[6]
  MIC: 32 µg/mL (≈ 70.1 µM)
[7]
  MIC: 32 µg/mL (≈ 70.1 µM)

## O=Cc1cn(C2CCN(c3nc4c(cc3F)c(=O)c(C(=O)O)cn4C3CC3)CC2)nn1
[1]
  MIC: 0.125 µg/mL (≈ 0.293 µM)
[2]
  MIC: > 32 µg/mL
[3]
  MIC: 0.031 µg/mL (≈ 0.0727 µM)
[4]
  MIC: 2 µg/mL (≈ 4.69 µM)
[5]
  MIC: 0.25 µg/mL (≈ 0.586 µM)
[6]
  MIC: 16 µg/mL (≈ 37.5 µM)
[7]
  MIC: 32 µg/mL (≈ 75 µM)
[8]
  Ratio: 16

## CC(O)c1cn(C2CCN(c3nc4c(cc3F)c(=O)c(C(=O)O)cn4C3CC3)CC2)nn1 (stereo unspecified)
[1]
  MIC: 2 µg/mL (≈ 4.52 µM)
[2]
  MIC: > 32 µg/mL
[3]
  MIC: 2 µg/mL (≈ 4.52 µM)
[4]
  MIC: 8 µg/mL (≈ 18.1 µM)
[5]
  MIC: 1 µg/mL (≈ 2.26 µM)
[6]
  MIC: 32 µg/mL (≈ 72.3 µM)
[7]
  MIC: 32 µg/mL (≈ 72.3 µM)

## C=CCO/N=C/c1cn(C2CCN(c3nc4c(cc3F)c(=O)c(C(=O)O)cn4C3CC3)CC2)nn1
[1]
  MIC: 0.5 µg/mL (≈ 1.04 µM)
[2]
  MIC: 8 µg/mL (≈ 16.6 µM)
[3]
  MIC: 2 µg/mL (≈ 4.15 µM)
[4]
  MIC: 8 µg/mL (≈ 16.6 µM)
[5]
  MIC: 4 µg/mL (≈ 8.31 µM)
[6]
  MIC: 32 µg/mL (≈ 66.5 µM)
[7]
  MIC: 32 µg/mL (≈ 66.5 µM)

## O=C(O)c1cn(C2CC2)c2nc(N3CCC(n4cc(/C=N/O)nn4)CC3)c(F)cc2c1=O
[1]
  MIC: 1 µg/mL (≈ 2.27 µM)
[2]
  MIC: > 32 µg/mL
[3]
  MIC: 1 µg/mL (≈ 2.27 µM)
[4]
  MIC: 4 µg/mL (≈ 9.06 µM)
[5]
  MIC: 2 µg/mL (≈ 4.53 µM)
[6]
  MIC: 32 µg/mL (≈ 72.5 µM)
[7]
  MIC: 32 µg/mL (≈ 72.5 µM)

## O=C(O)c1cn(C2CC2)c2nc(N3CCC(n4cc(CO)nn4)CC3)c(F)cc2c1=O
[1]
  MIC: 0.125 µg/mL (≈ 0.292 µM)
[2]
  MIC: > 32 µg/mL
[3]
  MIC: 0.5 µg/mL (≈ 1.17 µM)
[4]
  MIC: 2 µg/mL (≈ 4.67 µM)
[5]
  MIC: 0.5 µg/mL (≈ 1.17 µM)
[6]
  MIC: 32 µg/mL (≈ 74.7 µM)
[7]
  MIC: 32 µg/mL (≈ 74.7 µM)

## C#CCO/N=C/c1cn(C2CCN(c3nc4c(cc3F)c(=O)c(C(=O)O)cn4C3CC3)CC2)nn1
[1]
  MIC: 0.5 µg/mL (≈ 1.04 µM)
[2]
  MIC: 32 µg/mL (≈ 66.7 µM)
[3]
  MIC: 1 µg/mL (≈ 2.09 µM)
[4]
  MIC: 8 µg/mL (≈ 16.7 µM)
[5]
  MIC: 4 µg/mL (≈ 8.34 µM)
[6]
  MIC: 32 µg/mL (≈ 66.7 µM)
[7]
  MIC: 32 µg/mL (≈ 66.7 µM)

## O=C(O)c1cn(C2CC2)c2nc(N3CCC(n4cc(/C=N/OCc5ccccc5)nn4)CC3)c(F)cc2c1=O
[1]
  MIC: 1 µg/mL (≈ 1.88 µM)
[2]
  MIC: 4 µg/mL (≈ 7.53 µM)
[3]
  MIC: 1 µg/mL (≈ 1.88 µM)
[4]
  MIC: 4 µg/mL (≈ 7.53 µM)
[5]
  MIC: 8 µg/mL (≈ 15.1 µM)
[6]
  MIC: 32 µg/mL (≈ 60.2 µM)
[7]
  MIC: 32 µg/mL (≈ 60.2 µM)

## O=C(O)c1cn(C2CC2)c2cc(N3CCNCC3)c(F)cc2c1=O [CIPROFLOXACIN]
[3]
  MIC: 0.5 µg/mL (≈ 1.51 µM)
[4]
  MIC: 1 µg/mL (≈ 3.02 µM)

## CN[C@H](CC(C)C)C(=O)N[C@H]1C(=O)N[C@@H](CC(N)=O)C(=O)N[C@H]2C(=O)N[C@H]3C(=O)N[C@H](C(=O)N[C@H](C(=O)O)c4cc(O)cc(O)c4-c4cc3ccc4O)[C@H](O)c3ccc(c(Cl)c3)Oc3cc2cc(c3O[C@@H]2O[C@H](CO)[C@@H](O)[C@H](O)[C@H]2O[C@H]2C[C@](C)(N)[C@H](O)[C@H](C)O2)Oc2ccc(cc2Cl)[C@H]1O [VANCOMYCIN]
[4]
  MIC: 0.5 µg/mL (≈ 0.345 µM)

## NC(=O)c1cn(C2CCN(c3nc4c(cc3F)c(=O)c(C(=O)O)cn4C3CC3)CC2)nn1
[1]
  MIC: 1 µg/mL (≈ 2.27 µM)
[2]
  MIC: > 32 µg/mL
[3]
  MIC: 2 µg/mL (≈ 4.53 µM)
[4]
  MIC: 4 µg/mL (≈ 9.06 µM)
[5]
  MIC: 4 µg/mL (≈ 9.06 µM)
[6]
  MIC: 32 µg/mL (≈ 72.5 µM)
[7]
  MIC: 32 µg/mL (≈ 72.5 µM)
